Assay results reported in patent US20180273528A1 (LES LABORATOIRES SERVIER, priority 2015, published 2018).

What was measured:
CLK1 = target: T1, CLK1 (Homo sapiens, UniProt P49759); assay: Kinase TR-FRET assay, CLK1; type: biochemical; conditions: full-length human kinase, 10 μM ATP
T1 construct: full-length human kinases from Carna Biosciences; purchased Carna Biosciences 04-126
Procedure: Inhibition of the enzymatic activity of human kinases was evaluated in a Time-Resolved Fluorescence Resonance Energy Transfer (TR-FRET) assay in 384-well reaction plates. […] Test compounds of the invention were added in reaction buffer at a range of concentrations from 0.1 nM to 30 μM. Following addition of EDTA (Sigma E7889, 10 mM) to stop the reaction, Europium-labelled mouse monoclonal antibody recognizing phospho-Thr232 in MBP (Perkin Elmer TRF0201, 1 nM) was added.

[1] = target: T2, His-TEV-DYRK1A Kinase domain (aa127-485) (Homo sapiens, UniProt Q13627); assay: Kinase ADP assay (ADP Hunter), DYRK1A kinase domain; type: biochemical; conditions: 20 μM ATP
T2 construct: His-TEV-DYRK1A Kinase domain (aa127-485); His tag (N); TEV protease cleavage site (N)
Summary of the method: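 Readout is ADP Hunter fluorescence at 590 nm, developed 20 min at 30 °C after the kinase step. That step ran 10 min at 30 °C in Hepes pH 7.4 (10 mM MgCl2, 1 mM EGTA, 0.02% Tween20) containing 20 μM ATP, 40 μM peptide and 20 nM enzyme plus compound.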

DYRK1A [2] = target: T3, DYRK1A (Homo sapiens, UniProt Q13627); assay: Cellular DYRK1 autophosphorylation assay in U2-OS cells; type: cell-based; design: full-length, wild-type human DYRK1A (NM_001396) with an HA tag; expressed in transfected cells; host or cells: human U2-OS osteosarcoma cells, transient transfection of a pcDNA3.1 plasmid; conditions: U2-OS cells transfected with HA-tagged human DYRK1A, 5 hours exposure; read-out: IC50 (μM) P-Ser520-Dyrk1A -Cell assay
Summary of the method: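 IC50 derived from dose-response curves of phospho-Ser520-DYRK1A (blots normalised to total DYRK1A), quantified by either immunoblotting with chemiluminescence or Mesoscale electrochemiluminescent ELISA. Compounds applied to U2-OS cells across several concentrations for 5 hours.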

DYRK1B = target: T4, DYRK1B (Homo sapiens, UniProt Q9Y463); assay: Kinase TR-FRET assay, DYRK1B; type: biochemical; conditions: full-length human kinase, 10 μM ATP
T4 construct: full-length human kinases from Carna Biosciences; purchased Carna Biosciences 04-131
Summary of the method: (§1)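 Compounds tested at 0.1 nM to 30 μM in reaction buffer; reaction stopped with 10 mM EDTA. Phosphorylated MBP detected with 1 nM Europium-labelled anti-phospho-Thr232 antibody by TR-FRET.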

DYRK1A [3] = target: T3, DYRK1A; assay: Kinase TR-FRET assay, DYRK1A; type: biochemical; design: full-length, wild-type human DYRK1A (NM_001396) with an HA tag; expressed in transfected cells; host or cells: human U2-OS osteosarcoma cells, transient transfection of a pcDNA3.1 plasmid; conditions: full-length human kinase, 10 μM ATP
Summary of the method: as §1

CDK9 = target: T5, CDK9 (Homo sapiens, UniProt P50750); assay: Kinase TR-FRET assay, CDK9; type: biochemical; conditions: full-length human kinase, 10 μM ATP
T5 construct: full-length human kinases from Carna Biosciences; purchased Carna Biosciences 04-110
Procedure: Inhibition of the enzymatic activity of human kinases was evaluated in a Time-Resolved Fluorescence Resonance Energy Transfer (TR-FRET) assay in 384-well reaction plates. In this assay, full-length human kinases from Carna Biosciences—DYRK1A (NM_001396, ref. 04-130; 2.0 ng/μl), DYRK1B (NM_004714, ref. 04-131; 1.2 ng/p), CLK1 (NM_001162407, ref. 04-126; 0.7 ng/μl), CDK9 (NM_001261, ref. 04-110; 0.9 ng/μl), or GSK3β (NM_001146156, ref. 04-141; 2.0 ng/μl—were incubated for 40 minutes (DYRK1A and DYRK1B) or 100 minutes (CLK1, CDK9 and GSK3β) at room temperature with ATP (Sigma A2383, 10 μM) and a ULight™-labelled human Myelin Basic Protein (MBP) peptide substrate (Perkin Elmer TRF0109, 100 nM) in a reaction buffer composed of 50 mM HEPES pH7.4, 1 mM EGTA, 10 mM MgCl2, 2 mM DTT and 0.01% Tween20. Test compounds of the invention were added in reaction buffer at a range of concentrations from 0.1 nM to 30 μM. Following addition of EDTA (Sigma E7889, 10 mM) to stop the reaction, Europium-labelled mouse monoclonal antibody recognizing phospho-Thr232 in MBP (Perkin Elmer TRF0201, 1 nM) was added. After one hour, the reaction plates were read using a fluorescence reader (EnVision®, Perkin Elmer) at 620 nm and 665 nm (excitation at 340 nm); when the Europium donor fluorophore is excited by light at 340 nm, an energy transfer (620 nm) to the acceptor occurs, which will then emit light at 665 nm.

T4 sequence (Q9Y463 whole entry): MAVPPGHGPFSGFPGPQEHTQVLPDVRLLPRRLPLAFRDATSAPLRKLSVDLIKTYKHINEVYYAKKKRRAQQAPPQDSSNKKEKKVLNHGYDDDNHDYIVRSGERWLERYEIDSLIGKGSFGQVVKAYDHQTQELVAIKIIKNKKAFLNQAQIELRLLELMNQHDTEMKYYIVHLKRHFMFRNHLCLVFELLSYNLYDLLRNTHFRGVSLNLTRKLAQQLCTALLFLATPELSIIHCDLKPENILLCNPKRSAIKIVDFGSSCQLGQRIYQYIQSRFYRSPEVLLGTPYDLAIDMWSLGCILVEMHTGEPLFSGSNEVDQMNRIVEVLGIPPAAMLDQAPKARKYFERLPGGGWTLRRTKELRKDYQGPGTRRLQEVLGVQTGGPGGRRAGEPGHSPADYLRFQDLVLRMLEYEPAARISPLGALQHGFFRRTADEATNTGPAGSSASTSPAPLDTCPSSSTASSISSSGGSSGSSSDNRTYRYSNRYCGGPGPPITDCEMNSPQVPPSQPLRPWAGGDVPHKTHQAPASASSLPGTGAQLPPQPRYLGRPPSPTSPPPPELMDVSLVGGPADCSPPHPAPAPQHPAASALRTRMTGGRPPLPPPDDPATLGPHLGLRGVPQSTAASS
T1 sequence (P49759 1-526 isoform P49759-3): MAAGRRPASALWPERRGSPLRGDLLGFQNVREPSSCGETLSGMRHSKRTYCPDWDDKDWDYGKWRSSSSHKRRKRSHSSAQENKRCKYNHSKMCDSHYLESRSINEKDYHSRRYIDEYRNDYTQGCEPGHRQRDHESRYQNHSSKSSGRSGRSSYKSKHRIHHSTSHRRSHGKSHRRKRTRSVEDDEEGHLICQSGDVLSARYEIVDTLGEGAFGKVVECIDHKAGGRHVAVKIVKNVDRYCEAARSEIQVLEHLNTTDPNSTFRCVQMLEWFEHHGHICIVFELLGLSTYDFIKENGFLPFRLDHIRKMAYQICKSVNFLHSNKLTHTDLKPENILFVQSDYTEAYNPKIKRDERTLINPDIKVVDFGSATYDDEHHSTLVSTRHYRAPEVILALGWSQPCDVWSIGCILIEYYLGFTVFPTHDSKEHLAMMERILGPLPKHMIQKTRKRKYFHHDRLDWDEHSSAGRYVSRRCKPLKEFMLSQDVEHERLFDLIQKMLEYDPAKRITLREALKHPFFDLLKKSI
T5 sequence (P50750 whole entry): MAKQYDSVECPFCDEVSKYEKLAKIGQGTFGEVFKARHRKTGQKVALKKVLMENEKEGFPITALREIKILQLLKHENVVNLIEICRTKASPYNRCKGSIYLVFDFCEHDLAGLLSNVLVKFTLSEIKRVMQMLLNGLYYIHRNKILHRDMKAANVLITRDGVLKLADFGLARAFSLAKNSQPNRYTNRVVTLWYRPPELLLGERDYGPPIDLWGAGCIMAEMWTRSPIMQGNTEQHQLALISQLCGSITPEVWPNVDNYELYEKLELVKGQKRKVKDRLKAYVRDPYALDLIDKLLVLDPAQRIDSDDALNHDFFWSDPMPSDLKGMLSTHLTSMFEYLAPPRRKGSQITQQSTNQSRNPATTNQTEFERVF
T5 sequence (O60563 whole entry partner): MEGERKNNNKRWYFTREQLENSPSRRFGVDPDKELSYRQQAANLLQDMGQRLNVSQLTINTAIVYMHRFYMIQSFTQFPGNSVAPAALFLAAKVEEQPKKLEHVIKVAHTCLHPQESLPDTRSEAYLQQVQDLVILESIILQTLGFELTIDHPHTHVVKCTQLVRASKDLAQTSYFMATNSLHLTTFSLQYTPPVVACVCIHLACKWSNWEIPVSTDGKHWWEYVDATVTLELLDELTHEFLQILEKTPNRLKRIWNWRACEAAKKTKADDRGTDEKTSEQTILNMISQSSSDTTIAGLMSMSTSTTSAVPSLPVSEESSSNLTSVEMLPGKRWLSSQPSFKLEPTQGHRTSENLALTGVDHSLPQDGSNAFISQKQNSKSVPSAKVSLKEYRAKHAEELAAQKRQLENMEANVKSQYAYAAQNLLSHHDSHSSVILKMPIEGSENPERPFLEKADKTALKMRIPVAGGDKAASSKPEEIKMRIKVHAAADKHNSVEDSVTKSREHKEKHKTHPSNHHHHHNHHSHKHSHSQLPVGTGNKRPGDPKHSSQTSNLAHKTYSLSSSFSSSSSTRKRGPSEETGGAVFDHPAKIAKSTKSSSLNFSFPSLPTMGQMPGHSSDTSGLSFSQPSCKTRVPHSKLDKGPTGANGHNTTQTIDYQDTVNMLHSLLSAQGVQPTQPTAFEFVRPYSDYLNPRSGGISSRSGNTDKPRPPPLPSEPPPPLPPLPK

Compound	IC50 (CLK1)	IC50 [1]	IC50 (DYRK1A [2])	IC50 (DYRK1B)	IC50 (DYRK1A [3])	IC50 (CDK9)
Cc1nc2ccc(-c3cc(N)nc(N)c3)nc2n1C[C@@H]1C[C@H]1c1ccccc1 (single isomer, unassigned) [Example 110]	0.02 µM	0.019 µM	0.042 µM			
Cc1nc2ccc(-c3cc(N)nc(N)c3)nc2n1CCC1CCOCC1 [Example 78, 4-{2-methyl-3-[2-(tetrahydro-2H-pyran-4-yl)ethyl]-3H-imidazo[4,5-b]pyridin-5-yl}pyridine-2,6-diamine]	0.018 µM	0.025 µM	0.133 µM			
Cc1nc2ccc(-c3cc(N)nc(N)c3)nc2n1CCc1ccccc1C(F)(F)F [Example 79, 4-(2-methyl-3-{2-[2-(trifluoromethyl)phenyl]ethyl}-3H-imidazo[4,5-b]pyridin-5-yl)pyridine-2,6-diamine]	0.014 µM	0.021 µM	0.068 µM			
COc1ccccc1CCn1c(C)nc2ccc(-c3cc(N)nc(N)c3)nc21 [Example 81, 4-{3-[2-(2-methoxyphenyl)ethyl]-2-methyl-3H-imidazo[4,5-b]pyridin-5-yl}pyridine-2,6-diamine]	0.015 µM	0.021 µM	0.094 µM			
CCOc1cccc(CCn2c(C)nc3ccc(-c4cc(N)nc(N)c4)nc32)c1 [Example 90, 4-{3-[2-(3-ethoxyphenyl)ethyl]-2-methyl-3H-imidazo[4,5-b]pyridin-5-yl}pyridine-2,6-diamine]	0.016 µM	0.015 µM	0.129 µM			
Cc1nc2ccc(-c3cc(N)nc(N)c3)nc2n1CC1CC1c1ccccc1 (stereo not drawn) [Example 97, 4-{2-methyl-3-[(2-phenylcyclopropyl)methyl]-3H-imidazo[4,5-b]pyridin-5-yl}pyridine-2,6-diamine]	0.021 µM	0.015 µM	0.097 µM			
COc1ccc2c(c1)CC(n1c(C)nc3ccc(-c4cc(N)nc(N)c4)nc31)C2 (stereo not drawn) [Example 98, 4-[3-(5-methoxy-2,3-dihydro-1H-inden-2-yl)-2-methyl-3H-imidazo[4,5-b]pyridin-5-yl]pyridine-2,6-diamine]	0.015 µM	0.007 µM	0.019 µM	0.009 µM	0.004 µM	
Cc1nc2ccc(-c3cc(N)nc(N)c3)nc2n1C1CC(c2ccccc2)C1 (stereo not drawn) [Example 100, 4-[2-methyl-3-(3-phenylcyclobutyl)-3H-imidazo[4,5-b]pyridin-5-yl]pyridine-2,6-diamine]	0.014 µM	0.006 µM	0.006 µM			
Cc1nc2ccc(-c3cc(N)nc(N)c3)nc2n1CCC(F)(F)F [Example 108, 4-[2-methyl-3-(3,3,3-trifluoropropyl)-3H-imidazo[4,5-b]pyridin-5-yl]pyridine-2,6-diamine]	0.026 µM	0.017 µM	0.109 µM			
Cc1nc2ccc(-c3cc(N)nc(N)c3)nc2n1CC1Cc2ccccc2C1 [Example 114, 4-[3-(2,3-dihydro-1H-inden-2-ylmethyl)-2-methyl-3H-imidazo[4,5-b]pyridin-5-yl]pyridine-2,6-diamine]	0.019 µM	0.005 µM	0.039 µM	0.009 µM	0.005 µM	
CCCCc1nc2ccc(-c3cc(N)nc(N)c3)nc2n1C1CCCC1 [Example 145, 4-(2-butyl-3-cyclopentyl-3H-imidazo[4,5-b]pyridin-5-yl)pyridine-2,6-diamine]	0.115 µM	0.03 µM	0.171 µM			
CCc1nc2ccc(-c3cc(N)nc(N)c3)nc2n1C1CCCC1 [Example 156, 4-(3-cyclopentyl-2-ethyl-3H-imidazo[4,5-b]pyridin-5-yl)pyridine-2,6-diamine]		0.017 µM	0.151 µM	0.016 µM	0.013 µM	0.554 µM
Cc1nc2ccc(-c3cc(N)nc(N)c3)nc2n1CCOc1cccc(Cl)n1 [Example 165, 4-(3-{2-[(6-chloropyridin-2-yl)oxy]ethyl}-2-methyl-3H-imidazo[4,5-b]pyridin-5-yl)pyridine-2,6-diamine]	0.015 µM	0.009 µM	0.026 µM	0.005 µM	0.003 µM	
Cc1nc2ccc(-c3cc(N)nc(N)c3)nc2n1CCOc1ccc(F)cc1 [Example 198, 4-{3-[2-(4-fluorophenoxy)ethyl]-2-methyl-3H-imidazo[4,5-b]pyridin-5-yl}pyridine-2,6-diamine]	0.017 µM	0.025 µM	0.092 µM			
COc1cccc(OCCn2c(C)nc3ccc(-c4cc(N)nc(N)c4)nc32)c1 [Example 202, 4-{3-[2-(3-methoxyphenoxy)ethyl]-2-methyl-3H-imidazo[4,5-b]pyridin-5-yl}pyridine-2,6-diamine]	0.018 µM	0.023 µM	0.18 µM			
Cc1nc2ccc(-c3cc(N)nc(N)c3)nc2n1CCOc1ccccc1F [Example 203, 4-{3-[2-(2-fluorophenoxy)ethyl]-2-methyl-3H-imidazo[4,5-b]pyridin-5-yl}pyridine-2,6-diamine]	0.016 µM	0.017 µM	0.148 µM			
Cc1nc2ccc(-c3cc(N)nc(N)c3)nc2n1CCOc1ccc(Cl)cc1 [Example 207, 4-{3-[2-(4-chlorophenoxy)ethyl]-2-methyl-3H-imidazo[4,5-b]pyridin-5-yl}pyridine-2,6-diamine]	0.021 µM	0.026 µM	0.12 µM			
Cc1nc2ccc(-c3cc(N)nc(N)c3)nc2n1CCOc1ccccn1 [Example 217, 4-{2-methyl-3-[2-(pyridin-2-yloxy)ethyl]-3H-imidazo[4,5-b]pyridin-5-yl}pyridine-2,6-diamine]		0.01 µM	0.089 µM	0.008 µM	0.006 µM	0.881 µM
CCn1c(C#N)nc2ccc(-c3cc(N)nc(N)c3)nc21 [Example 223, 5-(2,6-diaminopyridin-4-yl)-3-ethyl-3H-imidazo[4,5-b]pyridine-2-carbonitrile]	0.02 µM	0.009 µM	0.097 µM			
N#Cc1nc2ccc(-c3cc(N)nc(N)c3)nc2n1C1CC1 [Example 224, 3-cyclopropyl-5-(2,6-diaminopyridin-4-yl)-3H-imidazo[4,5-b]pyridine-2-carbonitrile]	0.02 µM	0.009 µM	0.057 µM			
C=CCn1c(C#N)nc2ccc(-c3cc(N)nc(N)c3)nc21 [Example 225, 5-(2,6-diaminopyridin-4-yl)-3-(prop-2-en-1-yl)-3H-imidazo[4,5-b]pyridine-2-carbonitrile]	0.021 µM	0.012 µM				
Cn1c(C#N)nc2ccc(-c3cc(N)nc(N)c3)nc21 [Example 227, 5-(2,6-diaminopyridin-4-yl)-3-methyl-3H-imidazo[4,5-b]pyridine-2-carbonitrile]	0.042 µM	0.01 µM	0.262 µM			
